Reference: US6448405B1, “Steroid receptor modulator compounds and methods” (Ligand Pharmaceuticals Incorporated, priority 1994, dated 2002)

Columns and labels:
[1] = target: T1, human progesterone receptor A form (PR-A) (Homo sapiens, UniProt P06401); assay: PR binding assay, baculovirus extract, [3H] progesterone; conditions: read-out: PR Binding Ki
T1 sequence (P06401 1-769 isoform P06401-2): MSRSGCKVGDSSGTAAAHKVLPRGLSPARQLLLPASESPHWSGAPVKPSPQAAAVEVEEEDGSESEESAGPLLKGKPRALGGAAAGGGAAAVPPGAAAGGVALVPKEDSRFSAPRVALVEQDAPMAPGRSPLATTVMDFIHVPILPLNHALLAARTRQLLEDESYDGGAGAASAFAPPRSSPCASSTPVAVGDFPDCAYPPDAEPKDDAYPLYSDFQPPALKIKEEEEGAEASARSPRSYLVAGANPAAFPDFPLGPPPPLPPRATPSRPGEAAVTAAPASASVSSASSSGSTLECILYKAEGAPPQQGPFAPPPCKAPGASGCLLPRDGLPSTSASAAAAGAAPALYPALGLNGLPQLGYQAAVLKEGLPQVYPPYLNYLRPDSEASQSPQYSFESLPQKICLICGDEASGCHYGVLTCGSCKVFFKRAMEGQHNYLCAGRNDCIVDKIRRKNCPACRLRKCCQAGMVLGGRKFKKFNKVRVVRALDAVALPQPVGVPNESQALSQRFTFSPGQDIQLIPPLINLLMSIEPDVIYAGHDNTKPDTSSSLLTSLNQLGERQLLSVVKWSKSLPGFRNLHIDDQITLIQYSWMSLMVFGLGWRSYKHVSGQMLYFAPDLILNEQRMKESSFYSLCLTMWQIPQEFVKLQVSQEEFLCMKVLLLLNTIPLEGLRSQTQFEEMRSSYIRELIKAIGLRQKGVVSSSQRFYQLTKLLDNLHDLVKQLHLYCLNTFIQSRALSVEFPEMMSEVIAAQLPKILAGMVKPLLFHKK

[2] = target: T2, human glucocorticoid receptor alpha (GRα) (Homo sapiens, UniProt P04150); assay: GR binding assay, baculovirus extract, [3H] dexamethasone; conditions: competition with [3H] dexamethasone, 4° C., 16 hours; read-out: GR Binding K1
T2 construct: made in house; crude extract used
T2 sequence (P04150 1-777): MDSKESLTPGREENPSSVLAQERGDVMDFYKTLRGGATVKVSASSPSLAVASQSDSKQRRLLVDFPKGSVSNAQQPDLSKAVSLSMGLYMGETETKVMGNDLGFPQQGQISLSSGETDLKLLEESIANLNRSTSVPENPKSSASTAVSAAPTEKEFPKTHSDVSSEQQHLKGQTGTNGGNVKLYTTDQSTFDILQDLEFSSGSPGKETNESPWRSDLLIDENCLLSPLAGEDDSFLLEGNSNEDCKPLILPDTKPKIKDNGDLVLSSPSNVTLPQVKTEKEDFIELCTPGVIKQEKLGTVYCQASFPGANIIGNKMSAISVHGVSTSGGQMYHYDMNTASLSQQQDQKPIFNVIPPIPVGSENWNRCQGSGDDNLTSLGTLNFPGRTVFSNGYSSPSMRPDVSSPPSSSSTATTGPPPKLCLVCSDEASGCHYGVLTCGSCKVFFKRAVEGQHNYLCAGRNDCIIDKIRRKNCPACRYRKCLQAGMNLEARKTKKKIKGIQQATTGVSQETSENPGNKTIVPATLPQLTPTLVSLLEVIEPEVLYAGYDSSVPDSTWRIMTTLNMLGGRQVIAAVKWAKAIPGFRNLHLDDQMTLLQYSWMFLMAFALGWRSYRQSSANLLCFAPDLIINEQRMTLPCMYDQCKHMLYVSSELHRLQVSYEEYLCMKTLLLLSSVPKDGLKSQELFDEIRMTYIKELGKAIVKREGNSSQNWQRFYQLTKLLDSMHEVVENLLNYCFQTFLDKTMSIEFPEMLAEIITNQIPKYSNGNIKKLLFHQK

| SMILES | Ki [1] [nM] | Ki [2] [nM] |
| --- | --- | --- |
| CC1=CC(C)(C)Nc2ccc3c(c21)C(c1ccccc1)Oc1ccccc1-3 (racemic) [Compound 161, (R/S)-1,2-Dihydro-2,2,4-trimethyl-5-phenyl-5H-chromeno[3,4-f]quinoline] | 3 | 137 |
| CC1=CC(C)(C)Nc2ccc3c(c21)C(c1cccc(C(F)(F)F)c1)Oc1ccccc1-3 (racemic) [Compound 195, (R/S) 1,2-Dihydro-2,2,4-trimethyl-5-[3-(trifluoromethyl)phenyl]-5H-chromeno[3,4-f]quinoline] | 3 | 26 |
